Square brackets hold non-standard residues; d marks the D form. Peptide text beside a SMILES is read from it. * marks the point of attachment. Myristoyl = CCCCCCCCCCCCCC(=O)*; Orn = NCCC[C@H](N)C(=O)O
Tests used:
[1] = test system: C. neoformans H99 and cdc50Δ; experiment: Intracellular calcium measurement (Fluo-3AM, flow cytometry); format: cell-based, Cryptococcus neoformans; details: YPD, remained elevated for the 60 min time course
Procedure: Intracellular calcium measurement was carried out in accordance with previously reported methodologies.[35] Yeast cells were sub cultured ON in YPD, and the next day cells were washed twice in D-Hanks (0.4 g/Liter KCl, 0.06 g/Liter KH2PO4, 8.0 g/Liter NaCl, 0.35 g/Liter NaHCO3, 0.06 g/Liter Na2HPO4·7H2O) and adjusted to 1 × 10^7 cfu/mL in 5 mL D-Hanks. Fluo-3-AM stock solution in DMSO was diluted 1000-fold to operating stain concentration of 10 μM. Cells were stained in the dark for 30 min at 37 °C, 225 rpm, in a 12 mL culture tube. Stained cells were washed three times in D-Hanks and resuspended into a minimal amount of YPD or calcium-enriched YPD required to inoculate each condition. Each condition was prepared with three technical replicates. After inoculating 1 mL YPD with 0.2 mL cell suspension, 0.2 mL was aliquoted into a flow tube for the 0 min time point. The flow tube was placed on ice until flow analysis. […] To allow for sample processing for each time point, each set of replicates was inoculated and treated about 2 min apart. Subsequent 0.2 mL aliquots were drawn at 12, 24, 36, and 60 min for flow analysis. Live cells were analyzed using BD FACS via 100,000 events were collected, and singlets were gated for each sample. The mean fluorescence of the singlets was recorded and plotted as a function of […].

[2] = test system: Cn cdc50Δ; experiment: microbe, parasite or virus in culture; format: cell-based, Cryptococcus neoformans; details: for MIC: 37 °C, 48 h
How it was run: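 MICs were determined by CLSI M27 broth microdilution in RPMI1640, using 2-fold serial dilutions and a 5000 cfu/mL yeast inoculum, with incubation for 2 days at 37 °C. Separate MIC tests were run in YPD enriched with CaCl2 or MgCl2.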

[3] = test system: C. neoformans in macrophage J774 cells; experiment: Macrophage killing assay; format: cell-based, Cryptococcus neoformans / murine macrophage; details: yeast pretreated at sub-MIC for 30 min; 2 or 4 h coincubation
Procedure: Macrophage killing assay was carried out in accordance with previously reported protocols.[23],[69] After the cell line was activated from −80 °C stock and passaged several times, the cells were washed and resuspended in fresh DMEM + FBS at 1 × 10^5 cell/mL. Each well in a 3 column by 6 row grid in a 48-well plate was charged with 0.5 mL of cell suspension, approximately 50,000 cell/well. Macrophages were grown ON at 37 °C in a tissue culture incubator and were further activated with LPS. Yeast cells were grown ON using standard conditions. Fungal cells were washed twice with H2O, resuspended in PBS, and adjusted to 2.4 × 10^6 cfu/mL in 5 mL RPMI. […] Treated cells were transferred to a 1.5 mL Eppendorf tube, pelleted, and resuspended in 100 μL of 20% mouse compliment in PBS for opsonization. Prior to inoculating the wells with yeast cells for coincubation, the opsonized cells were diluted by an additional 20% with PBS. Each well was inoculated with 10 μL of cell suspension. Cocultures were prepared using three technical replicates. The 48-well plates were inoculated about 30 min apart to allow time to process each plate during the experiment. After 2 h of coincubation, each well was washed three times with 200 μL of warm DMEM + penstrep. […]

[4] = YPD + 2.5 mM Mg2+, unit inferred
[5] = YPD + 10 mM Mg2+, unit inferred
[6] = YPD + 20 mM Mg2+, unit inferred
[7] = Cryptococcus neoformans, YPD + 0 mM Ca2+
[8] = Cryptococcus neoformans, YPD + 2.5 mM Ca2+
[9] = Cryptococcus neoformans, YPD + 5 mM Ca2+
[10] = Cryptococcus neoformans, YPD + 10 mM Ca2+
[11] = Cryptococcus neoformans, YPD + 20 mM Ca2+

Row | Compound | MIC ([2]; YPD + 0 mM Mg2+, unit inferred) | MIC [2, 4] | MIC ([2]; YPD + 5 mM Mg2+, unit inferred) | MIC [2, 5] | MIC [2, 6] | MIC [2, 7] | MIC [2, 8] | MIC [2, 9] | MIC [2, 10] | MIC [2, 11] | other results
1 | CCCCCCCCCCCCCC(=O)N[C@@H](Cc1c[nH]c2ccccc12)C(=O)NCC(=O)NCC(=O)N[C@H](C(=O)N[C@@H](CCCN)C(=O)N[C@@H](CCCN)C(=O)N[C@@H](CC(N)=O)C(=O)N[C@@H](Cc1ccc(O)cc1)C(=O)N[C@@H](C)C(N)=O)[C@@H](C)CC [KKOO-NH2] (Myristoyl-WGGI[Orn][Orn]NYA-NH2) | 4 µg/mL | 4 µg/mL | 4 µg/mL | 4 µg/mL | 4 µg/mL |  |  |  |  |  | time to difference in intracellular calcium signaling vs untreated cells [1]: ≤ 12 min; MIC ([2]; YPD + 0 mM Ca2+): 2 µg/mL; increase of MIC (largest deviation) ([2]; YPD +0 to +5 mM CaCl2): 4 fold; MIC ([2]; YPD + 2.5 mM Ca2+): 4 µg/mL; MIC ([2]; YPD + 5 mM Ca2+): 8 µg/mL; MIC ([2]; YPD + 10 mM Ca2+): 8 µg/mL; MIC ([2]; YPD + 20 mM Ca2+): 4 µg/mL; fungal proliferation inside macrophages vs untreated control [3]: No statistically significant difference
2 | CC[C@H](C)C[C@H](C)CCCCCCCCC(=O)N[C@H]1C[C@@H](O)[C@@H](NCCN)NC(=O)[C@@H]2[C@@H](O)CCN2C(=O)[C@H]([C@H](O)CCN)NC(=O)[C@H]([C@H](O)[C@@H](O)c2ccc(O)cc2)NC(=O)[C@@H]2C[C@@H](O)CN2C(=O)[C@H]([C@@H](C)O)NC1=O [CAS, caspofungin] | 4 µg/mL | 8 µg/mL | 8 µg/mL | 8 µg/mL | 8 µg/mL | 4 µg/mL | 8 µg/mL | 16 µg/mL | 32 µg/mL | 8 µg/mL | 
3 | OC(Cn1cncn1)(Cn1cncn1)c1ccc(F)cc1F [FLC, fluconazole] |  |  |  |  |  | 0.5 µg/mL | 0.5 µg/mL | 0.5 µg/mL | 0.25 µg/mL | 0.25 µg/mL | MIC ([2]; YPD + 0 mM Mg2+, unit not given): ½; MIC ([2]; YPD + 2.5 mM Mg2+, unit not given): ¼; MIC ([2]; YPD + 5 mM Mg2+, unit not given): ¼; MIC ([2]; YPD + 10 mM Mg2+, unit not given): 1/8; MIC ([2]; YPD + 20 mM Mg2+, unit not given): 1/16
